According to ChEMBL document CHEMBL3885881, “DrugMatrix”:

Species: Rattus norvegicus
Test: DrugMatrix - Regimen: Daily Repeat
Format: toxicity, organism-based, Sprague-Dawley
Design: regimen Daily Repeat, gender Male, age 6-8 weeks
Details: in vivo, po, route oral GAVAGE, […]; for ABSOLUTE BASOPHIL / BASOPHIL / ABSOLUTE EOSINOPHIL / ABSOLUTE LYMPHOCYTE / ABSOLUTE MONOCYTE / ABSOLUTE SEGMENTED NEUTROPHIL / EOSINOPHIL / ERYTHROCYTE COUNT / HEMATOCRIT / HEMOGLOBIN / LEUKOCYTE COUNT / LYMPHOCYTE / MEAN CORPUSCULAR HEMOGLOBIN / MEAN CORPUSCULAR HEMOGLOBIN CONCENTRATION / MEAN CORPUSCULAR VOLUME / MONOCYTE / NEUTROPHIL / NUCLEATED RED BLOOD CELLS / PLATELET COUNT: tissue Blood; for ALANINE AMINOTRANSFERASE / ALBUMIN / ALKALINE PHOSPHATASE / ASPARTATE AMINOTRANSFERASE / BLOOD UREA NITROGEN / CARBON DIOXIDE / CHLORIDE / CHOLESTEROL / CREATINE PHOSPHOKINASE / CREATININE / GLUCOSE / LACTATE DEHYDROGENASE / LIPASE / PHOSPHORUS / POTASSIUM / SODIUM / TOTAL BILIRUBIN / TOTAL PROTEIN / URIC ACID: tissue Plasma
[1] = 0 mg/kg, 72 h, dose level Control, time 3 day
[2] = 0 mg/kg, 120 h, dose level Control, time 5 day
[3] = 4 mg/kg, 72 h, dose level Low, time 3 day
[4] = 4 mg/kg, 120 h, dose level Low, time 5 day
[5] = 16 mg/kg, 72 h, dose level High, time 3 day
[6] = 16 mg/kg, 120 h, dose level High, time 5 day

## O=NN(CCCl)C(=O)NCCCl [CARMUSTINE]
[1]
  ABSOLUTE BASOPHIL: 0 CELLS/uL
  BASOPHIL: 0%
[2]
  ABSOLUTE BASOPHIL: 0 CELLS/uL
  ABSOLUTE EOSINOPHIL: 0 CELLS/uL
  ABSOLUTE LYMPHOCYTE: 10431 CELLS/uL
  ABSOLUTE MONOCYTE: 90.5 CELLS/uL
  ABSOLUTE SEGMENTED NEUTROPHIL: 1111.83 CELLS/uL
  BASOPHIL: 0%
  EOSINOPHIL: 0%
  ERYTHROCYTE COUNT: 5.51 x10E6/uL
  HEMATOCRIT: 34.67%
  HEMOGLOBIN: 13.5 G/DL
  LEUKOCYTE COUNT: 11.63 x10E3/uL
  LYMPHOCYTE: 89.67%
  MEAN CORPUSCULAR HEMOGLOBIN: 24.5 pg
  MEAN CORPUSCULAR HEMOGLOBIN CONCENTRATION: 38.95 G/DL
  MEAN CORPUSCULAR VOLUME: 62.87 fL
  MONOCYTE: 0.67%
  NEUTROPHIL: 9.67%
  NUCLEATED RED BLOOD CELLS: 0 /100WBC
  PLATELET COUNT: 1052.67 x10E3/uL
  ALANINE AMINOTRANSFERASE: 54.67 u/L
  ALBUMIN: 4.15 G/DL
  ALKALINE PHOSPHATASE: 359.83 u/L
  ASPARTATE AMINOTRANSFERASE: 83 u/L
  BLOOD UREA NITROGEN: 13.5 mg/dL
  CARBON DIOXIDE: 27.17 mmol/L
  CHLORIDE: 98.5 MEQ/L
  CHOLESTEROL: 66.83 mg/dL
  CREATINE PHOSPHOKINASE: 256.17 u/L
  CREATININE: 0.19 mg/dL
  GLUCOSE: 171.33 mg/dL
  LACTATE DEHYDROGENASE: 91.5 u/L
  LIPASE: 10.5 u/L
  PHOSPHORUS: 8.72 mg/dL
  POTASSIUM: 5.34 MEQ/L
  SODIUM: 142.53 MEQ/L
  TOTAL BILIRUBIN: 0.2 mg/dL
  TOTAL PROTEIN: 6.05 G/DL
  URIC ACID: 0.6 mg/dL
[3]
  ABSOLUTE BASOPHIL: 0 CELLS/uL
  ABSOLUTE EOSINOPHIL: 0 CELLS/uL
  ABSOLUTE LYMPHOCYTE: 4876.33 CELLS/uL
  ABSOLUTE MONOCYTE: 48 CELLS/uL
  ABSOLUTE SEGMENTED NEUTROPHIL: 442.33 CELLS/uL
  BASOPHIL: 0%
  EOSINOPHIL: 0%
  ERYTHROCYTE COUNT: 5.3 x10E6/uL
  HEMATOCRIT: 33.47%
  HEMOGLOBIN: 13.1 G/DL
  LEUKOCYTE COUNT: 5.37 x10E3/uL
  LYMPHOCYTE: 90.67%
  MEAN CORPUSCULAR HEMOGLOBIN: 24.7 pg
  MEAN CORPUSCULAR HEMOGLOBIN CONCENTRATION: 39.13 G/DL
  MEAN CORPUSCULAR VOLUME: 63.13 fL
  MONOCYTE: 1%
  NEUTROPHIL: 8.33%
  NUCLEATED RED BLOOD CELLS: 0 /100WBC
  PLATELET COUNT: 1176.67 x10E3/uL
  ALANINE AMINOTRANSFERASE: 69.33 u/L
  ALBUMIN: 4.2 G/DL
  ALKALINE PHOSPHATASE: 310 u/L
  ASPARTATE AMINOTRANSFERASE: 124.67 u/L
  BLOOD UREA NITROGEN: 8.33 mg/dL
  CARBON DIOXIDE: 31.67 mmol/L
  CHLORIDE: 102 MEQ/L
  CHOLESTEROL: 70 mg/dL
  CREATINE PHOSPHOKINASE: 196 u/L
  CREATININE: 0.11 mg/dL
  GLUCOSE: 149.33 mg/dL
  LACTATE DEHYDROGENASE: 75.67 u/L
  LIPASE: 45 u/L
  PHOSPHORUS: 9.8 mg/dL
  POTASSIUM: 5.86 MEQ/L
  SODIUM: 147.15 MEQ/L
  TOTAL BILIRUBIN: 0.2 mg/dL
  TOTAL PROTEIN: 5.6 G/DL
  URIC ACID: 0.47 mg/dL
[4]
  ABSOLUTE BASOPHIL: 0 CELLS/uL
  ABSOLUTE EOSINOPHIL: 0 CELLS/uL
  ABSOLUTE LYMPHOCYTE: 3763.67 CELLS/uL
  ABSOLUTE MONOCYTE: 27 CELLS/uL
  ABSOLUTE SEGMENTED NEUTROPHIL: 142.67 CELLS/uL
  BASOPHIL: 0%
  EOSINOPHIL: 0%
  ERYTHROCYTE COUNT: 5.76 x10E6/uL
  HEMATOCRIT: 35.3%
  HEMOGLOBIN: 13.53 G/DL
  LEUKOCYTE COUNT: 3.93 x10E3/uL
  LYMPHOCYTE: 95.67%
  MEAN CORPUSCULAR HEMOGLOBIN: 23.5 pg
  MEAN CORPUSCULAR HEMOGLOBIN CONCENTRATION: 38.33 G/DL
  MEAN CORPUSCULAR VOLUME: 61.27 fL
  MONOCYTE: 0.67%
  NEUTROPHIL: 3.67%
  NUCLEATED RED BLOOD CELLS: 0 /100WBC
  PLATELET COUNT: 1079.33 x10E3/uL
  ALANINE AMINOTRANSFERASE: 65 u/L
  ALBUMIN: 4.4 G/DL
  ALKALINE PHOSPHATASE: 287.67 u/L
  ASPARTATE AMINOTRANSFERASE: 91.67 u/L
  BLOOD UREA NITROGEN: 10 mg/dL
  CARBON DIOXIDE: 27.67 mmol/L
  CHLORIDE: 101.33 MEQ/L
  CHOLESTEROL: 66.67 mg/dL
  CREATINE PHOSPHOKINASE: 256.67 u/L
  CREATININE: 0.22 mg/dL
  GLUCOSE: 159.33 mg/dL
  LACTATE DEHYDROGENASE: 67.33 u/L
  LIPASE: 10.67 u/L
  PHOSPHORUS: 8.57 mg/dL
  POTASSIUM: 5.14 MEQ/L
  SODIUM: 148.03 MEQ/L
  TOTAL BILIRUBIN: 0.13 mg/dL
  TOTAL PROTEIN: 6.3 G/DL
  URIC ACID: 0.57 mg/dL
[5]
  ABSOLUTE BASOPHIL: 0 CELLS/uL
  ABSOLUTE EOSINOPHIL: 0 CELLS/uL
  BASOPHIL: 0%
  EOSINOPHIL: 0%
  TOTAL PROTEIN: 11.13 G/DL
[6]
  ABSOLUTE BASOPHIL: 0 CELLS/uL
  ABSOLUTE EOSINOPHIL: 9 CELLS/uL
  ABSOLUTE LYMPHOCYTE: 2345.67 CELLS/uL
  ABSOLUTE MONOCYTE: 24.67 CELLS/uL
  ABSOLUTE SEGMENTED NEUTROPHIL: 87.33 CELLS/uL
  BASOPHIL: 0%
  EOSINOPHIL: 0.33%
  ERYTHROCYTE COUNT: 6.17 x10E6/uL
  HEMATOCRIT: 38.6%
  HEMOGLOBIN: 14.23 G/DL
  LEUKOCYTE COUNT: 2.47 x10E3/uL
  LYMPHOCYTE: 95%
  MEAN CORPUSCULAR HEMOGLOBIN: 23.1 pg
  MEAN CORPUSCULAR HEMOGLOBIN CONCENTRATION: 36.93 G/DL
  MEAN CORPUSCULAR VOLUME: 62.57 fL
  MONOCYTE: 1%
  NEUTROPHIL: 3.67%
  NUCLEATED RED BLOOD CELLS: 0 /100WBC
  PLATELET COUNT: 1131 x10E3/uL
  ALANINE AMINOTRANSFERASE: 102 u/L
  ALBUMIN: 3.93 G/DL
  ALKALINE PHOSPHATASE: 370.33 u/L
  ASPARTATE AMINOTRANSFERASE: 322 u/L
  BLOOD UREA NITROGEN: 8.33 mg/dL
  CARBON DIOXIDE: 27.67 mmol/L
  CHLORIDE: 98 MEQ/L
  CHOLESTEROL: 235 mg/dL
  CREATINE PHOSPHOKINASE: 236.67 u/L
  CREATININE: 0.21 mg/dL
  GLUCOSE: 146 mg/dL
  LACTATE DEHYDROGENASE: 165.33 u/L
  LIPASE: 12 u/L
  PHOSPHORUS: 9.6 mg/dL
  POTASSIUM: 5.3 MEQ/L
  SODIUM: 146.6 MEQ/L
  TOTAL BILIRUBIN: 1.73 mg/dL
  TOTAL PROTEIN: 6.4 G/DL
  URIC ACID: 0.6 mg/dL
